In patent publication US6423737B1, “Benzamidoxime prodrugs as antipneumocystic agents” (The University of North Carolina at Chapel Hill, priority 1995, dated 2002):
“Also recorded” adds a separate entry of the source.

Experiments:
[1] = Acute toxicity of single doses in normal rats; format: in vivo; settings: normal rats; for time after injection to recovery / persistence of symptoms: single IV 20 μmol/kg; for relative acute toxicity among the diamidines: single IV injection
[2] = tested on: Pneumocystis carinii; settings: cited from earlier work; for mean histological score, IV DOSING: tail vein injection daily for 14 days @ 10 mg/kg, scores range from 0.5 (low infection) to 4.0; for intravenous activity of diamidines (in words): previously evaluated by a different score method
[3] = tested on: Pneumocystis carinii; assay: Anti-P. carinii activity in immunosuppressed rat model (lung cyst counts); format: in vivo, Sprague-Dawley rats; settings: for % saline, ORAL DOSING: oral by gavage daily for 14 days @33 μmol/kg body weight; for anti-P. carinii activity when given orally (in words): Formula I series, orally by gavage once daily for 14 days; for activity on oral administration, furan series (in words): orally by gavage
Method: The activity of the compounds of Formula I against P. carinii was carried out according to an established method. See Tidwell, R. R., et al., J. Protozool. […] Agents Chemother. […] Agents Chemother. […] Briefly, male Sprague-Dawley rats (barrier raised, not certified virus-free) weighing 150-200 g each, were obtained (Hilltop Laboratories, Scottsdale, Pa.). Immediately upon arrival, the animals were caged individually and begun on a low protein (8%) diet and on drinking water containing tetracycline (0.5 mg/mL) and dexamethasone (1.0 μ/mL). This regimen was continued for eight weeks. At the beginning of the seventh week, animals were divided into groups of 8 or more, and the test compounds were administered for 14 days. Saline and pentamidine-treated groups were included as controls.
Animals were sacrificed at the end of the eighth week by chloroform inhalation. The left lung was weighed, ground through a No. 60 wire mesh screen, and suspended 1:10 (wt/vol) in 10 mM β-mercaptoethanol-Hanks' balanced salts solution (HBSS) without cations. Slides were prepared by spotting 5 μL of lung homogenate diluted 1:10 in HBSS with β-mercaptoethanol and allowed to air dry. The slides were stained with cresyl violet, and the cysts were counted by a blinded protocol. The number of cysts per gram of original lung tissue was calculated, and the groups were reported as the percentages of saline-treated controls.
The anti-P. carinii value for each compound is expressed as the percent of cysts in the treatment group as compared to the saline control group. Values are also compared to a positive control group consisting of animals treated intravenously with pentamidine.

[4] = Subjective scale of toxicity and tolerance during treatment in the immunosuppressed rat model; settings: for Toxicity, IV DOSING / Toxicity, ORAL DOSING: subjective scale; for acute toxicity generally noted for diamidines, on intravenous administration: immunosuppressed rat model
Excerpt: ^b subjective scale of toxicity. […] In general, the larger the value the more severe the toxicity, with values greater than 2 indicating the death of some animals

[5] = 22.0 μmol/kg/day, values greater than 2 indicate death of some animals

N=C(N)c1ccc(OCCCCCOc2ccc(C(=N)N)cc2)cc1 [Compound 2, 1,5-bis(4′-amidinophenoxy)pentane, reference compound]
observed acute toxicity after single intravenous injection ([1]; 20 μmol/kg): appeared hypotensive, with rapid paling of extremities, hypoactivity and dyspnea, which progressed to slight cyanosis of extremities | observed acute toxicity after single intravenous injection ([1]; 40 μmol/kg): immediate sever hind limb contractions, increased salivation, dyspnea, initial paling of extremities which progressed to marked cyanosis and profound hypoactivity | time after injection to recovery / persistence of symptoms [1]: ≤ 5 min | mean histological score, IV DOSING [2]: 1.1 | % saline, ORAL DOSING ([3]; Table 2): 133.09 % saline | % saline, IV DOSING ([3]; Table 2, tail vein injection daily for 14 days at 22 mg/kg body weight): 0.87 % saline | % saline, ORAL DOSING ([3]; Table 3): 133.09 % saline

N=C(N)c1ccc(OCCCCOc2ccc(C(=N)N)cc2)cc1 [Compound 4, 1,4-bis(4′-amidinophenoxy)butane, reference compound]
intravenous activity of diamidines (in words) [2]: previously shown to have intravenous activity | mean histological score, IV DOSING [2]: 0.5 | anti-P. carinii activity when given orally (in words) [3]: reduced or no anti-P. carinii activity | % saline, ORAL DOSING ([3]; Table 3): 46.03 % saline

N=C(N)c1ccc(OCCCOc2ccc(C(=N)N)cc2)cc1 [Compound 6, 1,3-bis(4′-amidinophenoxy)propane]
relative acute toxicity among the diamidines [1]: less acutely toxic than pentamidine | intravenous activity of diamidines (in words) [2]: previously shown to have intravenous activity | mean histological score, IV DOSING [2]: 0.9 | anti-P. carinii activity when given orally (in words) [3]: reduced or no anti-P. carinii activity

COc1cc(C(=N)N)ccc1OCCCOc1ccc(C(=N)N)cc1OC [Compound 8, 1,3-bis(2′-methoxy-4′-amidinophenoxy)propane, reference compound]
observed acute toxicity after single intravenous injection ([1]; 10 μmol/kg): perceptible hypoactivity | time after injection to recovery / persistence of symptoms [1]: > 15 min | relative acute toxicity among the diamidines [1]: even more acutely toxic than the other two diamidines tested | intravenous activity of diamidines (in words) [2]: previously shown to have intravenous activity | anti-P. carinii activity when given orally (in words) [3]: significant oral activity

NC(=NO)c1ccc(-c2ccc(-c3ccc(C(N)=NO)cc3)o2)cc1 [Compound 10, 2,5-bis-[4-amidinophenyl]furanbis-amidoxime]
Toxicity, IV DOSING ([4]; 0.3 μmol/kg/day): 0 | Toxicity, IV DOSING ([4]; 2.7 μmol/kg/day): 0 | Toxicity, IV DOSING ([4]; 5.5 μmol/kg/day): +1 | Toxicity, IV DOSING ([4]; 11.0 μmol/kg/day): +1 | Toxicity, IV DOSING [4, 5]: +1 | inflammation and necrosis at the injection site ([4]; intravenous, 5.5 μmol/day): considerable inflammation and necrosis of the tail vein at the injection site | acute toxicity generally noted for diamidines, on intravenous administration ([4]; intravenous): absent | Toxicity, ORAL DOSING ([4]; 5.5 μmol/kg/day): 0 | Toxicity, ORAL DOSING ([4]; 11.0 μmol/kg/day): 0 | Toxicity, ORAL DOSING ([4]; 33.0 μmol/kg/day): 0 | activity on oral administration, furan series (in words) ([3]; immunosuppressed rat model): effective | drug uptake on oral dosage (suggested by the values for the cyst counts) ([3]; rat, in vivo, po): superior to that of the parent compound 9

CON=C(N)c1ccc(-c2ccc(-c3ccc(C(N)=NOC)cc3)o2)cc1 [Compound 11, 2,5-bis-[4-amidinophenyl]furanbis-O-methylamidoxime]
Toxicity, IV DOSING [4, 5]: 0 | tolerance at the injection site ([4]; intravenous, 22.0 μmol/kg/day): well-tolerated | acute toxicity generally noted for diamidines, on intravenous administration ([4]; intravenous): absent | Toxicity, ORAL DOSING ([4]; 5.5 μmol/kg/day): 0 | Toxicity, ORAL DOSING ([4]; 11.0 μmol/kg/day): 0 | Toxicity, ORAL DOSING ([4]; 22.0 μmol/kg/day): 0 | Toxicity, ORAL DOSING ([4]; 33.0 μmol/kg/day): 0 | activity on oral administration, furan series (in words) ([3]; immunosuppressed rat model): effective; also recorded: more effective than the bis-amidoxime 10 | drug uptake on oral dosage (suggested by the values for the cyst counts) ([3]; oral dosage, immunosuppressed rat model): superior to that of the parent compound 9

CCON=C(N)c1ccc(-c2ccc(-c3ccc(C(N)=NOCC)cc3)o2)cc1 [Compound 12, 2,5-bis-[4-amidinophenyl]furanbis-O-ethylamidoxime]
Toxicity, IV DOSING [4, 5]: +1 | Toxicity, ORAL DOSING ([4]; 33.0 μmol/kg/day): 0
